ChEMBL document CHEMBL1275476, “Emergence of macrolide resistance gene mph(B) in Streptococcus uberis and cooperative effects with rdmC-like gene” (2008)
In brackets after ≈: the same amount, converted by molar mass.

Tests used:
Format in all cases: functional
Streptococcus uberis [1] = experiment: Antimicrobial activity against Streptococcus uberis UCN60 expressing mph(B) and rdmC-like genes by broth microdilution method
Streptococcus uberis [2] = experiment: Antimicrobial activity against Streptococcus uberis UCN61 by broth microdilution method
Escherichia coli [3] = experiment: Antimicrobial activity against Escherichia coli AG100A harboring pAT392 containing rdmC-like gene by broth microdilution method
Escherichia coli [4] = experiment: Antimicrobial activity against Escherichia coli AG100A harboring pAT392 containing mph(B) gene by broth microdilution method
Staphylococcus aureus [5] = experiment: Antimicrobial activity against Staphylococcus aureus RN4220 harboring pAT392 containing mph(B) gene by broth microdilution method
Staphylococcus aureus [6] = experiment: Antimicrobial activity against Staphylococcus aureus RN4220 harboring empty vector by broth microdilution method
Escherichia coli [7] = experiment: Antimicrobial activity against Escherichia coli AG100A harboring empty vector by broth microdilution method
Staphylococcus aureus [8] = experiment: Antimicrobial activity against Staphylococcus aureus RN4220 harboring pAT392 containing mph(B) and rdmC-like genes by broth microdilution method
Enterococcus faecalis [9] = experiment: Antimicrobial activity against Enterococcus faecalis JH2-2 harboring empty vector by broth microdilution method
Enterococcus faecalis [10] = experiment: Antimicrobial activity against Enterococcus faecalis JH2-2 harboring pAT392 containing rdmC-like gene by broth microdilution method
Escherichia coli [11] = experiment: Antimicrobial activity against Escherichia coli AG100A harboring pAT392 containing mph(B) and rdmC-like genes by broth microdilution method
Enterococcus faecalis [12] = experiment: Antimicrobial activity against Enterococcus faecalis JH2-2 harboring pAT392 containing mph(B) and rdmC-like gene by broth microdilution method
Enterococcus faecalis [13] = experiment: Antimicrobial activity against Enterococcus faecalis JH2-2 harboring pAT392 containing mph(B) gene by broth microdilution method
Staphylococcus aureus [14] = experiment: Antimicrobial activity against Staphylococcus aureus RN4220 harboring pAT392 containing rdmC-like gene by broth microdilution method

| Compound | MIC (Streptococcus uberis [1]) [µg/mL] | MIC (Streptococcus uberis [2]) [µg/mL] | MIC (Escherichia coli [3]) [µg/mL] | MIC (Escherichia coli [4]) [µg/mL] | MIC (Staphylococcus aureus [5]) [µg/mL] | MIC (Staphylococcus aureus [6]) [µg/mL] | MIC (Escherichia coli [7]) [µg/mL] | MIC (Staphylococcus aureus [8]) [µg/mL] | MIC (Enterococcus faecalis [9]) [µg/mL] | MIC (Enterococcus faecalis [10]) [µg/mL] | MIC (Escherichia coli [11]) [µg/mL] | MIC (Enterococcus faecalis [12]) [µg/mL] | MIC (Enterococcus faecalis [13]) [µg/mL] | MIC (Staphylococcus aureus [14]) [µg/mL] |
| --- | --- | --- | --- | --- | --- | --- | --- | --- | --- | --- | --- | --- | --- | --- |
| CC[C@H]1OC(=O)[C@H](C)[C@@H](O[C@H]2C[C@@](C)(OC)[C@@H](O)[C@H](C)O2)[C@H](C)[C@@H](O[C@@H]2O[C@H](C)C[C@H](N(C)C)[C@H]2O)[C@](C)(O)C[C@@H](C)CN(C)[C@H](C)[C@@H](O)[C@]1(C)O [AZITHROMYCIN] | 0.12 (≈ 0.16 µM) | 0.12 (≈ 0.16 µM) |  |  |  |  |  |  |  |  |  |  |  |  |
| CCC[C@@H]1C[C@@H](C(=O)N[C@@H]([C@H]2O[C@H](SC)[C@H](O)[C@@H](O)[C@H]2O)[C@H](C)Cl)N(C)C1 [CLINDAMYCIN] | 0.03 (≈ 0.0706 µM) | 0.03 (≈ 0.0706 µM) | 2 (≈ 4.71 µM) | 2 (≈ 4.71 µM) | 0.06 (≈ 0.141 µM) | 0.06 (≈ 0.141 µM) | 2 (≈ 4.71 µM) | 0.06 (≈ 0.141 µM) | 2 (≈ 4.71 µM) | 2 (≈ 4.71 µM) | 2 (≈ 4.71 µM) | 2 (≈ 4.71 µM) | 2 (≈ 4.71 µM) | 0.06 (≈ 0.141 µM) |
| CC[C@H]1OC(=O)[C@H](C)[C@@H](O[C@H]2C[C@@](C)(OC)[C@@H](O)[C@H](C)O2)[C@H](C)[C@@H](O[C@@H]2O[C@H](C)C[C@H](N(C)C)[C@H]2O)[C@](C)(O)C[C@@H](C)C(=O)[C@H](C)[C@@H](O)[C@]1(C)O [ERYTHROMYCIN] | 0.06 (≈ 0.0818 µM) | 0.06 (≈ 0.0818 µM) | 2 (≈ 2.73 µM) | 64 (≈ 87.2 µM) | 0.25 (≈ 0.341 µM) | 0.25 (≈ 0.341 µM) | 2 (≈ 2.73 µM) | 0.25 (≈ 0.341 µM) | 0.25 (≈ 0.341 µM) | 0.25 (≈ 0.341 µM) | 64 (≈ 87.2 µM) | 0.25 (≈ 0.341 µM) | 0.25 (≈ 0.341 µM) | 0.25 (≈ 0.341 µM) |
| CO[C@@H]1[C@@H](O[C@@H]2O[C@H](C)[C@@H](O[C@H]3C[C@@](C)(O)[C@@H](OC(=O)CC(C)C)[C@H](C)O3)[C@H](N(C)C)[C@H]2O)[C@@H](CC=O)C[C@@H](C)[C@@H](O)/C=C/C=C/C[C@@H](C)OC(=O)C[C@H]1OC(C)=O [JOSAMYCIN] | 0.25 (≈ 0.302 µM) | 0.25 (≈ 0.302 µM) | 8 (≈ 9.66 µM) | 16 (≈ 19.3 µM) | 1 (≈ 1.21 µM) | 1 (≈ 1.21 µM) | 8 (≈ 9.66 µM) | 1 (≈ 1.21 µM) | 1 (≈ 1.21 µM) | 1 (≈ 1.21 µM) | 16 (≈ 19.3 µM) | 1 (≈ 1.21 µM) | 1 (≈ 1.21 µM) | 1 (≈ 1.21 µM) |
| CC[C@H]1OC(=O)C[C@@H](O)[C@H](C)[C@@H](O[C@@H]2O[C@H](C)[C@@H](O[C@H]3C[C@@](C)(O)[C@@H](O)[C@H](C)O3)[C@H](N(C)C)[C@H]2O)[C@@H](CC=O)C[C@@H](C)C(=O)/C=C/C(C)=C/[C@@H]1CO[C@@H]1O[C@H](C)[C@@H](O)[C@@H](OC)[C@H]1OC [TYLOSIN] | 0.5 (≈ 0.546 µM) | 0.5 (≈ 0.546 µM) | 16 (≈ 17.5 µM) | 128 (≈ 140 µM) | 1 (≈ 1.09 µM) | 1 (≈ 1.09 µM) | 16 (≈ 17.5 µM) | 16 (≈ 17.5 µM) | 1 (≈ 1.09 µM) | 1 (≈ 1.09 µM) | > 128 | 16 (≈ 17.5 µM) | 1 (≈ 1.09 µM) | 1 (≈ 1.09 µM) |
| SPIRAMYCIN | 8 | 0.5 | 200 | 400 | 8 | 4 | 8 | 32 | 0.5 | 2 | 1000 | 64 | 8 | 4 |
